These results are taken from PMC8602723, “Comparative assessment of antimicrobial, antiradical and cytotoxic activities of cannabidiol and its propyl analogue cannabidivarin” (Scientific Reports, 2021).

Where two headings read alike, the source gives them in different places.

The test system of one assay is TelCOFS02MA cells. Put plainly: LDH assay (plasma membrane damage). The format is cell-based, human. Conditions: for IC50: Homo sapiens, read-out: IC50 LDH assay. The protocol: (§1) LDH assay is a high-throughput method based on the release of the LDH cytoplasmic enzyme from the cytosol into the extracellular space when the plasma membrane is damaged[29],[30]. Plasma membrane damage related to the amount of lysed cells was monitored by LDH assay, and the results were used for indirectly detecting the necrosis correlated to the leakage of the cytosolic enzyme due the loss of membrane permeability control[29],[30]. This assay was performed with the protocol described by Lehmann and colleagues.
(§2) Briefly, 1 × 10^4 A549 and Caco-2 cells and 2 × 10^4 HepG2, MDA-MB-231 and TelCOFS02MA cells were seeded in 100 µL of 1% FBS-fresh medium in each well of 96-well plates and incubated for 24 h at 37 °C with 95% humidity and 5% CO2. Then, the medium was removed and replaced with 100 µL of medium with different concentrations of CBD and CBDV, which were chosen on the basis of range-finding tests (as previously indicated). The plates were incubated at 37 °C for 72 h. In all experiments, the background control (wells with medium and without cells to obtain information about the LDH activity in the assay medium), low control (wells containing cells exposed only to the medium to determine spontaneous LDH release), high control (wells containing cells exposed to 2% Triton-X100 for 10 min before performing the assay to determine maximum LDH release), and solvent controls (2.5% methanol) were included. One hundred microlitres of supernatant was removed carefully from each well and transferred into corresponding wells in optically clear 96-well flat bottom microplates. One hundred microlitres of freshly prepared reaction mixture (Diaphorase (Catalyst)/NAD^+ /INT/sodium lactate) was added to each well and incubated for 30 min at 20 °C in darkness. Thus, NAD^+ was reduced to NADH/H^+ by the LDH-catalysed conversion of lactate to pyruvate. Then, the catalyst transferred H/H^+ from NADH/H^+ to the tetrazolium salt INT, which was reduced to formazan. To arrest the reaction, 50 µL/well of 1 N HCl was added. The spectrophotometric absorbance was determined at 492 nm. The absorbance of the background control wells was subtracted from all other values.
(§3) The results are reported as percentages of cytotoxicity, which is linked to the percentage of LDH released from damaged plasma membranes, calculated as follows:3 IC%=OD492sample-OD492lowcontrol/OD492highcontrol-OD492lowcontrol·100
(§4) IC50 values (concentrations of the sample to obtain 50% cytotoxicity) were calculated.
All results from five independent experiments are expressed as the IC50 or EC50 as determined by analysis with Prism 5 software (GraphPad Inc., San Diego, CA, USA) and nonlinear regression (log agonist vs. normalized response-variable slope) with a 95% confidence range. […]

The test system of the next assay is S. aureus. Set-up: method as in PMID 33469147. The settings on record: S. aureus exposed at 6–14 µM; cited from earlier work.
The next assay concerns Hep G2 cells. Put plainly: LDH assay (plasma membrane damage). Format: cell-based. The settings on record: Homo sapiens, read-out: IC50 LDH assay. How it is done:
as §1, §2, §3, §4
(§5) All results from five independent experiments are expressed as the IC50 or EC50 as determined by analysis with Prism 5 software (GraphPad Inc., San Diego, CA, USA) and nonlinear regression (log agonist vs. normalized response-variable slope) with a 95% confidence range. Lowest observed adverse effect concentrations (LOAECs) were calculated by one-way ANOVA and Dunnett’s comparison test. Differences compared to the controls were considered significant as follows: *p < 0.05, **p < 0.001 and ***p < 0.0001.

A further assay relates to Caco-2 cells. Description: LDH assay (plasma membrane damage). Format: cell-based. Conditions: Homo sapiens, read-out: IC50 LDH assay. The protocol:
as §1, §2, §3, §4, §5

For the next assay, the system named is MDA-MB-231 cells. Put plainly: LDH assay (plasma membrane damage). The format is cell-based. Conditions: Homo sapiens, read-out: IC50 LDH assay. How it is done:
as §1, §2, §3, §4, §5

The subject of another assay is A549 cells. Description: LDH assay (plasma membrane damage). Format: cell-based. The settings on record: Homo sapiens, read-out: IC50 LDH assay. How it is done: as §1, §2, §3, §4, §5
A short description of assay [1]: ABTS assay (radical scavenging). Conditions: for TEAC (Trolox equivalent antioxidant capacity), ABTS: EC50 Trolox/EC50 sample; for ABTS scavenging capacity less than the capacity of Trolox: compared with Trolox. How it is done:
An ABTS assay was performed following the procedure described by Lavorgna et al. 2019[66]. The cationic ABTS radical (ABTS^+) was generated by oxidizing ABTS (7 mM) with potassium persulfate (140 mM K2S2O8), and the mixture was incubated for 12–16 h in the dark. The ABTS^+ working solution was diluted to an absorbance of […] OD at 734 nm. […] Distilled water was used for the blank, Trolox was used for the standard control, and methanol was used for the solvent control.
The results are expressed as the median effective concentration (EC50). Furthermore, Trolox equivalent antioxidant capacity (TEAC) values were calculated following the procedure used by Shimamura end colleagues[68]:5 TEAC=EC50Trolox/EC50sample
as §5

Assay [2] relates to SZ95, normal-like sebocytes. Further details: method as in PMID 27094344. The settings on record: 24 h of treatment; cited from earlier work.

`C=C(C)[C@@H]1CCC(C)=C[C@H]1c1c(O)cc(CCCCC)cc1O` [CBD, Cannabidiol]: the 50% inhibitory concentration (IC50) (in general, the concentration that gives 50% inhibition) was 118 µM in the assay with TelCOFS02MA cells (TelCOFS02MA, 72 h exposure, 95% confidence interval in brackets); 18.1 µM with Hep G2 cells (HepG2, Hep G2, 72 h exposure, 95% confidence interval in brackets); 22.8 µM in the assay on Caco-2 cells (Caco-2, 72 h exposure, 95% confidence interval in brackets); 22.1 µM in the assay with MDA-MB-231 cells (MDA-MB-231, 72 h exposure, 95% confidence interval in brackets); 24 µM in the assay on A549 cells (A549, 72 h exposure, 95% confidence interval in brackets). Also, the “LOAEC LDH assay” value with TelCOFS02MA cells (TelCOFS02MA, 72 h) is recorded as 80 µM. In addition, in the assay with S. aureus, the “protein, DNA, RNA and peptidoglycan synthesis” value is “inhibited”. Further, in assay [1], the “TEAC (Trolox equivalent antioxidant capacity), ABTS” value was 0.21. The “ABTS scavenging capacity less than the capacity of Trolox” value in assay [1] amounted to 79%.

On to `C=C(C)[C@@H]1CCC(C)=C[C@H]1c1c(O)cc(CCC)cc1O` [CBDV, cannabidivarin], for which the IC50 turned out to be 152 µM in the assay with TelCOFS02MA cells (72 h); 21.2 µM in the assay on Hep G2 cells (HepG2, 72 h); 29.1 µM in the assay on Caco-2 cells (Caco-2, 72 h); 33.8 µM in the assay on MDA-MB-231 cells (MDA-MB-231, 72 h); 26.3 µM in the assay on A549 cells (A549, 72 h). Further, the “LOAEC LDH assay” value in the assay on TelCOFS02MA cells (TelCOFS02MA, 72 h) amounted to 88 µM. Besides, the “concentration giving a significant decrease in cell viability (MTT)” value in assay [2] is reported as 100 nM. Also, the “TEAC (Trolox equivalent antioxidant capacity), ABTS” value in assay [1] was 0.27. In addition, the “ABTS scavenging capacity less than the capacity of Trolox” value in assay [1] amounted to 73%.
